Results as given in patent publication EP4389210A1, “HETEROARYL COMPOUNDS FOR THE CONTROL OF INVERTEBRATE PESTS” (BASF SE, priority 2022, dated 2024).

Legend:
Format in all cases: in vivo
Heliothis virescens = assay: Tobacco budworm (Heliothis virescens) control, 96-well microtiter plate insect diet test with eggs; settings: 120 h, egg and larval mortality visually assessed after 5 days at about 28 ± 1°C, read-out: mortality in comparison with untreated controls
Protocol: For evaluating control of tobacco budworm (Heliothis virescens) the test unit consisted of 96-well-microtiter plates containing an insect diet and 15-25 H. virescens eggs.
The compounds were formulated using a solution containing 75% v/v water and 25% v/v DMSO. Different concentrations of formulated compounds were sprayed onto the insect diet at 10 µl, using a custom-built micro atomizer, at two replications.
After application, microtiter plates were incubated at about 28 ± 1°C and about 80 ± 5 % relative humidity for 5 days. Egg and larval mortality was then visually assessed.

Anthonomus grandis = assay: Boll weevil (Anthonomus grandis) control, 96-well microtiter plate insect diet test with eggs; settings: 120 h, egg and larval mortality visually assessed after 5 days at about 25 ± 1°C, read-out: mortality in comparison with untreated controls
Protocol: For evaluating control of boll weevil (Anthonomus grandis) the test unit consisted of 96-well-microtiter plates containing an insect diet and 5-10 A. grandis eggs.
The compounds were formulated using a solution containing 75% v/v water and 25% v/v DMSO. Different concentrations of formulated compounds were sprayed onto the insect diet at 5µl, using a custom-built micro atomizer, at two replications.
After application, microtiter plates were incubated at about 25 ± 1°C and about 75 ± 5 % relative humidity for 5 days. Egg and larval mortality was then visually assessed.

Aedes aegypti = assay: whole plant or invertebrate; settings: 48 h, larval mortality visually assessed after 2 days at 28±1°C, read-out: mortality in comparison with untreated controls
Protocol: For evaluating control of yellow fever mosquito (Aedes aegypti) the test unit consisted of 96-well-microtiter plates containing 200µl of tap water per well and 5-15 freshly hatched A. aegypti larvae.
The active compounds were formulated using a solution containing 75% (v/v) water and 25% (v/v) DMSO. Different concentrations of formulated compounds or mixtures were sprayed onto the insect diet at 2.5µl, using a custom-built micro atomizer, at two replications.
After application, microtiter plates were incubated at 28±1°C, 80±5 % RH for 2 days. Larval mortality was then visually assessed.

Dichromothrips corbetti = assay: Orchid thrips (Dichromothrips corbetti) floral-immersion test; settings: adult thrips on dipped orchid petals, recorded 72 hours after treatment, read-out: mortality in comparison with untreated controls
Protocol: Dichromothrips corbetti adults used for bioassay were obtained from a colony maintained continuously under laboratory conditions. For testing purposes, the test compound is diluted in a 1:1 mixture of acetone:water (vol:vol), plus Kinetic HV at a rate of 0.01% v/v.
Thrips potency of each compound was evaluated by using a floral-immersion technique. All petals of individual, intact orchid flowers were dipped into treatment solution and allowed to dry in Petri dishes. Treated petals were placed into individual re-sealable plastic along with about 20 adult thrips. All test arenas were held under continuous light and a temperature of about 28°C for duration of the assay. After 3 days, the numbers of live thrips were counted on each petal. The percent mortality was recorded 72 hours after treatment.

Spodoptera eridania = assay: Southern armyworm (Spodoptera eridania), 2nd instar larvae, foliar spray on lima bean plants; settings: 96 h, 2nd instar larvae on sprayed lima bean plants, assessed 4 days after treatment, read-out: mortality in comparison with untreated controls
Protocol: The active compounds were formulated by a Tecan liquid handler in 100% cyclohexanone as a 10,000 ppm solution supplied in tubes. The 10,000 ppm solution was serially diluted in 100% cyclohexanone to make interim solutions. These served as stock solutions for which final dilutions were made by the Tecan in 50% acetone:50% water (v/v) into 10 or 20ml glass vials. A nonionic surfactant (Kinetic®) was included in the solution at a volume of 0.01% (v/v). The vials were then inserted into an automated electrostatic sprayer equipped with an atomizing nozzle for application to plants/insects. Lima bean plants (variety Sieva) were grown 2 plants to a pot and selected for treatment at the 1st true leaf stage. Test solutions were sprayed onto the foliage by an auto-mated electrostatic plant sprayer equipped with an atomizing spray nozzle. The plants were dried in the sprayer fume hood and then removed from the sprayer. Each pot was placed into perforated plastic bags with a zip closure. Ten to 11 armyworm larvae were placed into the bag and the bags zipped closed. Test plants were maintained in a growth room at about 25°C and about 20-40% relative humidity for 4 days, avoiding direct exposure to fluorescent light (14:10 light:dark photoperiod) to prevent trapping of heat inside the bags. Mortality and reduced feeding were assessed 4 days after treatment, compared to untreated control plants.

CC(NC(=O)c1cc(Cl)cc(C(F)(F)F)c1)c1ncccc1-n1nccn1 (stereo not drawn) [Compound I-1]
≥ 75%: mortality at 2500 ppm (Heliothis virescens) | mortality at 2500 ppm (Anthonomus grandis) | mortality at 2500 ppm (Aedes aegypti) | mortality at 300 ppm (Dichromothrips corbetti) | mortality at 300 ppm (Spodoptera eridania)

CC(NC(=O)c1cc(Cl)cc(C(F)(F)F)c1)c1ncccc1-n1cc(C#N)cn1 (stereo not drawn) [Compound I-2]
≥ 75%: mortality at 2500 ppm (Anthonomus grandis) | mortality at 2500 ppm (Aedes aegypti) | mortality at 300 ppm (Spodoptera eridania)

CC(NC(=O)c1cc(Cl)cc(C(F)(F)F)c1)c1nc(Cl)ccc1-n1nccn1 (stereo not drawn) [Compound I-3, 3-chloro-N-[1-[6-chloro-3-(triazol-2-yl)-2-pyridyl]ethyl]-5-(trifluoromethyl)benzamide]
≥ 75%: mortality at 2500 ppm (Heliothis virescens) | mortality at 2500 ppm (Anthonomus grandis) | mortality at 2500 ppm (Aedes aegypti) | mortality at 300 ppm (Spodoptera eridania)
